Results on 28 compounds are retold here after US9914730B2, “Azaquinazoline inhibitors of Atypical protein Kinase C” (Ignyta, Inc., priority 2012, dated 2018).

In this experiment the target is T1, full-length human PKCι (Homo sapiens, UniProt P41743).
T1 construct: Recombinant, full-length human PKCι expressed in Sf21 insect cells is also commercially available; purchased; host or cells: Sf21 insect cells
T1 sequence (P41743 1-596): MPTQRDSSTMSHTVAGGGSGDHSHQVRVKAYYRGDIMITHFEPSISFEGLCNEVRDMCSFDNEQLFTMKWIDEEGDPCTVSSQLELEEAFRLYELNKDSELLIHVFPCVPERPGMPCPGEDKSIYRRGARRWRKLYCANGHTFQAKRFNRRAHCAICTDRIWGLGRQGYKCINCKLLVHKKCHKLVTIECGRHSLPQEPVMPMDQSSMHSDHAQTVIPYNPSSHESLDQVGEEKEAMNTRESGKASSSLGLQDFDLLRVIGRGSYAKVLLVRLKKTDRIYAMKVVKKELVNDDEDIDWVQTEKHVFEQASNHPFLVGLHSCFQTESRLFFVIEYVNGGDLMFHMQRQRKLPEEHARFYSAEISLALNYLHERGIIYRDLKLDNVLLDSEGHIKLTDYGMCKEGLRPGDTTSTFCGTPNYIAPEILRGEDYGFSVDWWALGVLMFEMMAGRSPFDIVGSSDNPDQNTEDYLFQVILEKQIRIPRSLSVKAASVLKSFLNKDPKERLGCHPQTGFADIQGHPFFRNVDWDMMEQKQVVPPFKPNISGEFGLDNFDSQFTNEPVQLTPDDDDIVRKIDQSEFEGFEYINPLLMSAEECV
Nature of the experiment: PKCι IC50 IMAP assay, full-length PKCι at 150 μM ATP. It counts as biochemical. The conditions noted are these: read-out: IC50 in IMAP assay against full length PKCi at 150 μM ATP. In outline:
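Compounds in 4% final DMSO are mixed with Sf21-derived full-length human PKCι (typically 15 pM) and 100 nM FAM-labelled pseudosubstrate peptide, then started with 150 μM ATP. Reaction runs 60 min at room temperature, is quenched with IMAP development reagent for 2 h, and fluorescence polarisation is measured to derive IC50.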

A word on the IC50: it is the concentration needed to halve the response being measured. Consider `c1cc(Nc2cc(-c3nc(N4CCNCC4)c4c(C5CC5)cncc4n3)ccn2)cc(C2CC2)c1` [Example 734, (3-Cyclopropyl-phenyl)-[4-(5-cyclopropyl-4-piperazin-1-yl-pyrido[3,4-d]pyrimidin-2-yl)-pyridin-2-yl]-amine], for which the IC50 is under 100 nM. To `c1cc(-c2nc(N3CCNCC3)c3c(C4CC4)cncc3n2)c2cc(C3CCC3)[nH]c2n1` [Example 2146, 2-(2-Cyclobutyl-1H-pyrrolo[2,3-b]pyridin-4-yl)-5-cyclopropyl-4-piperazin-1-yl-pyrido[3,4-d]pyrimidine] belongs under 100 nM; to `NC1CCN(c2nc(-c3ccnc(Nc4c(F)cccc4F)c3)nc3cncc(C4CC4)c23)C1` (stereo not shown) [Example 708, {4-[4-(3-Amino-pyrrolidin-1-yl)-5-cyclopropyl-pyrido[3,4-d]pyrimidin-2-yl]-pyridin-2-yl}-(2,6-difluoro-phenyl)-amine], 100 to 1000 nM; to `Fc1ccccc1-n1cc(Nc2cc(-c3nc(N4CCNCC4)c4c(C5CC5)cncc4n3)ccn2)cn1` [Example 817, [4-(5-Cyclopropyl-4-piperazin-1-yl-pyrido[3,4-d]pyrimidin-2-yl)-pyridin-2-yl]-[1-(2-fluoro-phenyl)-1H-pyrazol-4-yl]-amine], under 100 nM.

As to `c1ccc(-c2cccc(Nc3cc(-c4nc(N5CCNCC5)c5c(C6CC6)cncc5n4)ccn3)c2)cc1` [Example 2051, Biphenyl-3-yl-[4-(5-cyclopropyl-4-piperazin-1-yl-pyrido[3,4-d]pyrimidin-2-yl)-pyridin-2-yl]-amine], the 50% inhibitory concentration (IC50) is under 100 nM.

For the compound `CN1CCN(c2cccc(Nc3cc(-c4nc(N5CCCC5)c5c(C6CC6)cncc5n4)ccn3)c2)CC1` [Example 760, [4-(5-Cyclopropyl-4-pyrrolidin-1-yl-pyrido[3,4-d]pyrimidin-2-yl)-pyridin-2-yl]-[3-(4-methyl-piperazin-1-yl)-phenyl]-amine], the half-maximal inhibitory concentration (IC50) lay in the range of 100 to 1000 nM.

Consider `CS(=O)(=O)N1CCC(Nc2cc(-c3nc(N4CCNCC4)c4c(C5CC5)cncc4n3)ccn2)CC1` [Example 816, [4-(5-Cyclopropyl-4-piperazin-1-yl-pyrido[3,4-d]pyrimidin-2-yl)-pyridin-2-yl]-(1-methanesulfonyl-piperidin-4-yl)-amine], for which the half-maximal inhibitory concentration (IC50) is under 100 nM. For the compound `Fc1cccnc1Nc1cc(-c2nc(N3CCNCC3)c3c(C4CCC4)cncc3n2)ccn1` [Example 784, [4-(5-Cyclobutyl-4-piperazin-1-yl-pyrido[3,4-d]pyrimidin-2-yl)-pyridin-2-yl]-(3-fluoro-pyridin-2-yl)-amine], the IC50 was under 100 nM. The value for `COc1ccc(Nc2cc(-c3nc(N4CCNCC4)c4c(OC)cncc4n3)ccn2)cn1` [Example 394, [4-(5-Methoxy-4-piperazin-1-yl-pyrido[3,4-d]pyrimidin-2-yl)-pyridin-2-yl]-(6-methoxy-pyridin-3-yl)-amine] was under 100 nM; that for `N#Cc1cccc(Nc2cc(-c3nc(N4CC[C@H](O)[C@H](O)C4)c4c(C5CC5)cncc4n3)ccn2)c1` [Example 711, 3-{4-[5-Cyclopropyl-4-((3R,4S)-3,4-dihydroxy-piperidin-1-yl)-pyrido[3,4-d]pyrimidin-2-yl]-pyridin-2-ylamino}-benzonitrile] was 100 to 1000 nM; that for `FC1(F)CC(Nc2cc(-c3nc(N4CCNCC4)c4c(C5CC5)cncc4n3)ccn2)C1` [Example 585, [4-(5-Cyclopropyl-4-piperazin-1-yl-pyrido[3,4-d]pyrimidin-2-yl)-pyridin-2-yl]-(3,3-difluorocyclo-butyl)-amine] was under 100 nM.

In the case of `Cn1c(C(F)(F)F)cc2c(-c3nc(N[C@@H]4CCNC4)c4c(C5CC5)cncc4n3)ccnc21` [Example 2077, [5-Cyclopropyl-2-(1-methyl-2-trifluoromethyl-1H-pyrrolo[2,3-b]pyridin-4-yl)-pyrido[3,4-d]pyrimidin-4-yl]-(R)-pyrrolidin-3-yl-amine], the IC50 is 10000 to 40000 nM.

On to `COc1cncc(Nc2cc(-c3nc(N4CCNCC4)c4c(OC)cncc4n3)ccn2)c1` [Example 424, [4-(5-Methoxy-4-piperazin-1-yl-pyrido[3,4-d]pyrimidin-2-yl)-pyridin-2-yl]-(5-methoxy-pyridin-3-yl)-amine], for which the concentration for half-maximal inhibition (IC50) is under 100 nM. The value for `c1ccc2c(Nc3cc(-c4nc(N5CCNCC5)c5c(C6CC6)cncc5n4)ccn3)nccc2c1` [Example 2089, [4-(5-Cyclopropyl-4-piperazin-1-yl-pyrido[3,4-d]pyrimidin-2-yl)-pyridin-2-yl]-iso[D4],[D3]uinolin-1-yl-amine] was under 100 nM; that for `CS(=O)(=O)c1ccc(F)c(Nc2cc(-c3nc(N4CCNCC4)c4c(C5CC5)cncc4n3)ccn2)c1` [Example 556, [4-(5-Cyclopropyl-4-piperazin-1-yl-pyrido[3,4-d]pyrimidin-2-yl)-pyridin-2-yl]-(2-fluoro-5-methanesulfonyl-phenyl)-amine] was under 100 nM. As for `CN(c1nc(-c2ccnc3[nH]c(C(F)(F)F)cc23)nc2cncc(C3CC3)c12)[C@@H]1CCNC1` [Example 2088, [5-Cyclopropyl-2-(2-trifluoromethyl-1H-pyrrolo[2,3-b]pyridin-4-yl)-pyrido[3,4-d]pyrimidin-4-yl]-methyl-(R)-pyrrolidin-3-yl-amine], the concentration for half-maximal inhibition (IC50) is under 100 nM.

For `CN1CCN(c2cccc(Nc3cc(-c4nc(N5CCN[C@@H](C(F)(F)F)C5)c5c(C6CC6)cncc5n4)ccn3)c2)CC1` [Example 2052, {4-[5-Cyclopropyl-4-((R)-3-trifluoromethyl-piperazin-1-yl)-pyrido[3,4-d]pyrimidin-2-yl]-pyridin-2-yl}-[3-(4-methyl-piperazin-1-yl)-phenyl]-amine], the IC50 was under 100 nM. The value for `COc1cncc2nc(-c3ccncc3)nc(N3CCNC(C(=O)Nc4ccccc4)C3)c12` (stereo not shown) [Example 156, 4-(5-Methoxy-2-pyridin-4-yl-pyrido[3,4-d]pyrimidin-4-yl)-piperazine-2-carboxylic acid phenylamide] was 1000 to 10000 nM. To `c1cc(-c2nc(N3CCSCC3)c3ccncc3n2)ccn1` [Example 24, 4-[2-(pyridin-4-yl)pyrido[3,4-d]-pyrimidin-4-yl]-thiomorpholine] belongs 10000 to 40000 nM; to `Cc1ccc(F)c(Nc2cc(-c3nc(N4CCNCC4)c4c(C5CC5)cncc4n3)ccn2)c1` [Example 504, [4-(5-Cyclopropyl-4-piperazin-1-yl-pyrido[3,4-d]pyrimidin-2-yl)-pyridin-2-yl]-(2-fluoro-5-methyl-phenyl)-amine], under 100 nM; to `COc1cncc2nc(-c3ccncc3)nc(N3CC[C@@H](N)C3)c12` [Example 45, (3R)-1-[5-methoxy-2-(pyridin-4-yl)-pyrido[3,4-d]-pyrimidin-4-yl]-pyrrolidin-3-amine], 1000 to 10000 nM. To `COc1cncc2nc(-c3ccnc(Nc4ccc(Cl)cn4)c3)nc(N3CCNCC3)c12` [Example 366, (5-Chloro-pyridin-2-yl)-[4-(5-methoxy-4-piperazin-1-yl-pyrido[3,4-d]pyrimidin-2-yl)-pyridin-2-yl]-amine] belongs under 100 nM; to `COc1cncc2nc(-c3ccnc(Nc4ccc(Cn5ccnc5)cc4)c3)nc(N[C@@H]3CCNC3)c12` [Example 333, {2-[2-(4-Imidazol-1-ylmethyl-phenylamino)-pyridin-4-yl]-5-methoxy-pyrido[3,4-d]pyrimidin-4-yl}-(R)-pyrrolidin-3-yl-amine], 1000 to 10000 nM; to `CC(=O)Nc1cc(-c2nc(N3CCNCC3)c3c(C4CC4)cncc3n2)ccn1` [Example 581, N-[4-(5-Cyclopropyl-4-piperazin-1-yl-pyrido[3,4-d]pyrimidin-2-yl)-pyridin-2-yl]-acetamide], under 100 nM. In the case of `Fc1cc(F)c(F)c(Nc2cc(-c3nc(N[C@@H]4CCNC4)c4c(C5CC5)cncc4n3)ccn2)n1` [Example 2054, {5-Cyclopropyl-2-[2-(3,4,6-trifluoro-pyridin-2-ylamino)-pyridin-4-yl]-pyrido[3,4-d]pyrimidin-4-yl}-(R)-pyrrolidin-3-yl-amine], the half-maximal inhibitory concentration (IC50) is under 100 nM. To `O=C(Cc1ccccc1)Nc1cc(-c2nc(N[C@@H]3CCNC3)c3ccncc3n2)ccn1` [Example 334, 2-Phenyl-N-{4-[4-((R)-pyrrolidin-3-ylamino)-pyrido[3,4-d]pyrimidin-2-yl]-pyridin-2-yl}-acetamide] belongs 1000 to 10000 nM. The value for `COc1cncc2nc(-c3ccnc(Nc4cc(C#N)ccn4)c3)nc(N[C@@H]3CCNC3)c12` [Example 332, 2-{4-[5-Methoxy-4-((R)-pyrrolidin-3-ylamino)-pyrido[3,4-d]pyrimidin-2-yl]-pyridin-2-ylamino}-isonicotinonitrile] was under 100 nM; that for `Fc1cccc(F)c1Nc1cc(-c2nc(N3CCNCC3)c3c(C4CC4)cnc(Cl)c3n2)ccn1` [Example 2100, [4-(8-Chloro-5-cyclopropyl-4-piperazin-1-yl-pyrido[3,4-d]pyrimidin-2-yl)-pyridin-2-yl]-(2,6-difluoro-phenyl)-amine] was under 100 nM.
